Article PMC11401813, “Grewiifopenes A–K, bioactive clerodane diterpenoids from Casearia grewiifolia Vent” (Natural Products and Bioprospecting, 2024)
Converted amounts (≈) assume the structure as drawn. Like-named read-outs stand apart in the source and are kept apart here.

How the values were obtained:
[1] = test system: HepG2 (hepatocellular carcinoma); assay: Cytotoxicity, MTT assay, HepG2; format: cell-based, human; conditions: MTT, mean ± s.d. (n = 3), read-out: IC50, HepG2
Procedure: (§1) The in vitro cytotoxicity assay toward a panel of human cancer cell lines of several clerodane diterpenoids has been well investigated. Thus, the isolates in adequate amounts were tested against MOLT-3 (acute lymphoblastic leukemia), HuCCA-1 (cholangiocarcinoma), HepG2 (hepatocellular carcinoma), A549 (lung adenocarcinoma), HeLa (cervical carcinoma), and MDA-MB-231 (triple negative breast cancer) cancer cell lines using the MTT and XTT methods. Doxorubicin and etoposide were used as positive controls.
(§2) The MTT (3-(4,5-dimethylthiazol-2-yl)-2,5-diphenyltetrazolium bromide) assay was employed for the cytotoxic evaluation against five human cancer cell lines, including HepG2, A549, MDA-MB-231, HeLa, and HuCCA-1, while the XTT (2,3-bis-(2-methoxy-4-nitro-5-sulphenyl)-(2H)-tetrazolium-5-carboxanilide) method was used for MOLT-3 cancer cell.

[2] = test system: A549 (lung adenocarcinoma); assay: Cytotoxicity, MTT assay, A549; format: cell-based, human; conditions: mean ± s.d. (n = 3)
Procedure: as §1, §2

[3] = test system: HeLa (cervical carcinoma); assay: Cytotoxicity, MTT assay, HeLa; format: cell-based, human; conditions: HeLa cell line, MTT, mean ± s.d. (n = 3); for IC50: read-out: IC50, HeLa
Procedure: as §1, §2

[4] = test system: HuCCA-1 (cholangiocarcinoma); assay: Cytotoxicity, MTT assay, HuCCA-1; format: cell-based, human; conditions: MTT, mean ± s.d. (n = 3), read-out: IC50, HuCCA-1
Procedure: as §1, §2

[5] = test system: Staphylococcus epidermidis (ATCC 12228); assay: Antibacterial broth microdilution (MIC/MBC), S. epidermidis; format: cell-based; conditions: ATCC12228
Procedure: (§3) In addition, the isolates were also evaluated for their antibacterial activity towards three strains including Bacillus cereus (ATCC 11778), Staphylococcus aureus (ATCC 6538) and Staphylococcus epidermidis (ATCC 12228) using penicillin G and gentamicin as the antibiotic controls (Table 5). […] Finally, the inhibitory activity of aromatase by using a CYP19 screening kit was investigated. The aromatase (also called estrogen synthase) is responsible for converting the non-aromatic ring A of androgens to estrogens, which are related to the proliferation of breast cancer cells.
(§4) The tested strains, Staphylococcus aureus (S. aureus) ATCC6538, Staphylococcus epidermidis (S. epidermidis) ATCC12228, and Bacillus cereus (B. cereus) ATCC11778 were obtained from the American Type Culture Collection (ATCC).
(§5) All tested species were grown on Mueller Hinton Agar (MHA) and incubated at 37 °C for 18–24 h. The bacterial colonies suspension in sterile normal saline was diluted until they reached a 1 × 10^6 CFC/mL concentration, which was then compared to the McFarland scale. This step provided a standard bacterial suspension (1 × 10^6 CFU/mL), which was used for the following assays.
(§6) The broth microdilution technique was used for the MIC and MBC determination, which was expressed according to Clinical and Laboratory Standards Institute (CLSI) standard M07 guideline. The compounds were prepared as a stock solution by dissolving in dimethyl sulfoxide (DMSO) with the concentration ranging from 0.195 to 200 µg/mL. DMSO and penicillin G or gentamicin were used as normal and standard drug control. […] Three replicates were performed for each experiment.

[6] = test system: Bacillus cereus (ATCC 11778); assay: Antibacterial broth microdilution (MIC/MBC), B. cereus; format: cell-based; conditions: Bacillus cereus, ATCC11778
Procedure: as §3, §4, §5, §6

[7] = test system: MDA-MB-231 (triple negative breast cancer); assay: Cytotoxicity, MTT assay, MDA-MB-231; format: cell-based, human; conditions: MTT, mean ± s.d. (n = 3), read-out: IC50, MDA-MB-231
Procedure: as §1, §2

[8] = test system: MOLT-3 (acute lymphoblastic leukemia); assay: Cytotoxicity, XTT method, MOLT-3; format: cell-based; conditions: Homo sapiens; MOLT-3 cell line; XTT; mean ± s.d. (n = 3); read-out: IC50, MOLT-3
Procedure: as §1, §2

[9] = test system: Staphylococcus aureus (ATCC 6538); assay: Antibacterial broth microdilution (MIC/MBC), S. aureus; format: cell-based; conditions: ATCC6538
Procedure: as §3, §4, §5, §6

aromatase (CYP19) = target: T1, aromatase (CYP19) (Homo sapiens, UniProt P11511); assay: Aromatase (CYP19) inhibition assay; format: biochemical
T1 construct: purchased
T1 sequence (P11511 1-503): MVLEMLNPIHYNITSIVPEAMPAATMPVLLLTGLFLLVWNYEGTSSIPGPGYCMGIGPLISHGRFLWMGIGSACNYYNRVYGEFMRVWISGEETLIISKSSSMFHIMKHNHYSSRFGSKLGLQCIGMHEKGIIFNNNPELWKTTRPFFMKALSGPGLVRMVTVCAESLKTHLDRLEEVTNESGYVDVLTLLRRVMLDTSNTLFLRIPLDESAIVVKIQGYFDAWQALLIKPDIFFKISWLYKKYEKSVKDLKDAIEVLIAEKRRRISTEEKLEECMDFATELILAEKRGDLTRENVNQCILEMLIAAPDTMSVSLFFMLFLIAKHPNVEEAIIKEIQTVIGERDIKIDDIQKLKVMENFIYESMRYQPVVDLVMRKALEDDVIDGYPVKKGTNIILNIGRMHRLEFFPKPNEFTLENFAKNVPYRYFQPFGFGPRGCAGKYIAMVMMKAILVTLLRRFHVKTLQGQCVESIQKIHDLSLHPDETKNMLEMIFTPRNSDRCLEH
Procedure: as §3
The aromatase assay used a method previously designed by Stresser and co-workers.

[10] = Homo sapiens, HepG2, HepG2 cell line
[11] = Homo sapiens, A549, A549 cell line
[12] = Homo sapiens, HuCC-A1, HuCCA-1 cell line
[13] = Homo sapiens, MDA-MB-231, MDA-MB-231 cell line

SMILES: C=CC(=C)CC[C@]1(C)[C@H](C)[C@@H](OC(C)=O)[C@H](OC)[C@@]23C(=C[C@H](OC(=O)CC(C)C)C[C@@H]12)[C@@H](OC(C)=O)O[C@H]3OC(C)=O [Compound 2, Grewiifopene B]
- IC50 [1, 10]: 37.1 ± 4.1 µM
- IC50 [2, 11]: 7.8 ± 0.5 µM
- IC50 ([3]; Homo sapiens, HeLa): 8.8 ± 0.9 µM
- IC50 [4, 12]: 8.7 ± 1.1 µM
- MBC [5]: > 200 µg/mL
- MIC [5]: > 200 µg/mL
- MBC [6]: > 200 µg/mL
- MIC [6]: 100 µg/mL (≈ 169 µM)
- IC50 [7, 13]: 9.3 ± 0.4 µM
- IC50 [8]: 2.7 ± 0.4 µM
- MBC [9]: > 200 µg/mL
- MIC [9]: > 200 µg/mL

SMILES: C=CC(=C)CC[C@]1(C)[C@H](C)C[C@H](OC)[C@@]23C(=C[C@H](OC(=O)[C@@H](C)CC)C[C@@H]12)[C@@H](OC(C)=O)O[C@H]3OC(C)=O [Compound 5, corymbulosin N]
- IC50 [1, 10]: 10 ± 0.5 µM
- IC50 [2, 11]: 5 ± 0.9 µM
- IC50 ([3]; Homo sapiens, HeLa): 5.6 ± 0.3 µM
- IC50 [4, 12]: 5.3 ± 0.1 µM
- inhibition at 12.5 µM (aromatase (CYP19); at a concentration of 12.5 µM): 18%
- Aromatase inhibitory activity (in words) (aromatase (CYP19); at the concentration up to 12.15 µM): did not show activity
- IC50 [7, 13]: 8.7 ± 0.2 µM
- IC50 [8]: 3.4 ± 0.4 µM

SMILES: C=CC(=C)CC[C@]1(C)[C@H](C)C[C@H](OC)[C@@]23C(=C[C@H](OC(=O)C(C)C)C[C@@H]12)[C@@H](OC(C)=O)O[C@H]3OC(C)=O [Compound 6, corymbulosin K]
- IC50 [1, 10]: 11.8 ± 1.1 µM
- IC50 [2, 11]: 5.8 ± 0.8 µM
- IC50 ([3]; Homo sapiens, HeLa): 7.3 ± 0.3 µM
- IC50 [4, 12]: 5.6 ± 1.2 µM
- IC50 [7, 13]: 10.2 ± 0.6 µM
- IC50 [8]: 3.2 ± 0.2 µM

SMILES: C=CC(=C)CC[C@]1(C)[C@H](C)C[C@H](OC)[C@@]23C(=C[C@H](OC(=O)CC(C)C)C[C@@H]12)[C@@H](OC)O[C@H]3OC(C)=O [Compound 10, kurzipene A]
- IC50 [1, 10]: 13 ± 1 µM
- IC50 [2, 11]: 8.2 ± 0.8 µM
- IC50 ([3]; Homo sapiens, HeLa): 10.7 ± 0.6 µM
- IC50 [4, 12]: 7.5 ± 0.2 µM
- MBC [5]: > 200 µg/mL
- MIC [5]: > 200 µg/mL
- MBC [6]: 12.5 µg/mL (≈ 24.8 µM)
- MIC [6]: 12.5 µg/mL (≈ 24.8 µM)
- IC50 [7, 13]: 10.4 ± 0.2 µM
- IC50 [8]: 5 ± 1.4 µM
- MBC [9]: > 200 µg/mL
- MIC [9]: > 200 µg/mL

SMILES: C=CC(=C)CCC1(C)C(C)C(OC(=O)C=Cc2ccc(O)cc2)C(O)C23C(=CC(OC(=O)CC(C)C)CC12)C(OC)OC3OC(C)=O (stereo not drawn) [Compound 13, Grewiifopene F]
- IC50 [1, 10]: 44.2 ± 4.4 µM
- IC50 [2, 11]: 30.6 ± 3.9 µM
- IC50, HeLa [3]: I^a (Inactive for cytotoxicity with < 50% inhibition at a concentration of 50 µg/mL)
- IC50 [4, 12]: 41.4 ± 6.1 µM
- IC50 [7, 13]: 37 ± 5.1 µM
- IC50 [8]: 3.7 ± 1 µM

SMILES: C=CC(=C)CC[C@]1(C)[C@H](C)[C@@H](OC(=O)/C=C/c2ccc(O)cc2)[C@H](O)[C@@]23C(=C[C@H](OC(=O)CC(C)C)C[C@@H]12)[C@H](OC(C)=O)O[C@H]3OC(C)=O [Compound 14, Grewiifopene G]
- IC50 [1, 10]: 7.3 ± 0.6 µM
- IC50 [2, 11]: 2.6 ± 0.1 µM
- IC50 ([3]; Homo sapiens, HeLa): 2.4 ± 0.2 µM
- IC50 [4, 12]: 1.8 ± 0.2 µM
- IC50 [7, 13]: 2 ± 0.1 µM
- IC50 [8]: 1.3 ± 0.5 µM

SMILES: C=CC(C)=CCC1(C)C(C)C(OC(C)=O)C(OC(C)=O)C23C(=CC(OC(=O)CC(C)C)CC12)C(OC(C)=O)OC3OC(C)=O (stereo not drawn) [Compound 15, Grewiifopene H]
- IC50 [1, 10]: 38.5 ± 2.8 µM
- IC50 [2, 11]: 9.2 ± 1.2 µM
- IC50 ([3]; Homo sapiens, HeLa): 8.8 ± 0.6 µM
- IC50 [4, 12]: 6.6 ± 0.6 µM
- MBC [5]: > 200 µg/mL
- MIC [5]: > 200 µg/mL
- MBC [6]: > 200 µg/mL
- MIC [6]: > 200 µg/mL
- IC50 [7, 13]: 9.1 ± 0.3 µM
- IC50 [8]: 3.1 ± 0.4 µM
- MBC [9]: > 200 µg/mL
- MIC [9]: > 200 µg/mL

SMILES: C=CC(C)=CCC1(C)C(C)C(OC(=O)C=Cc2ccc(O)cc2)C(O)C23C(=CC(OC(=O)CC(C)C)CC12)C(OC(C)=O)OC3OC(C)=O (stereo not drawn) [Compound 17, Grewiifopene J]
- IC50 [1, 10]: 7.1 ± 0.2 µM
- IC50 [2, 11]: 2.4 ± 0.2 µM
- IC50 [3]: 2.8 ± 0.03 µM
- IC50 ([4]; HuCCA-1 cell line): 0.4 ± 0.03 µM
- IC50 [7, 13]: 2 ± 0.1 µM
- IC50 [8]: 1 ± 0.1 µM

SMILES: C=CC(C)=CCC1(C)C(C)C(OC(=O)C=Cc2ccc(O)cc2)C(O)C23C(=CC(OC(=O)CC(C)C)CC12)C(OC(C)=O)OC3OC(C)=O (stereo not drawn) [Compound 18, Grewiifopene K]
- IC50 ([1]; HepG2 cell line): 8.9 ± 1.2 µM
- IC50 ([2]; A549 cell line): 2.2 ± 0.2 µM
- IC50 [3]: 6.1 ± 0.3 µM
- IC50 ([4]; HuCCA-1 cell line): 1.6 ± 0.2 µM
- IC50 ([7]; MDA-MB-231 cell line): 2.5 ± 0.1 µM

SMILES: COc1cccc2c1C(=O)c1c(O)c3c(c(O)c1C2=O)C[C@@](O)(C(=O)CO)C[C@@H]3O[C@H]1C[C@H](N)[C@H](O)[C@H](C)O1 [Doxorubicin, reference compound]
- IC50 [1, 10]: 0.52 ± 0.1 µM
- IC50 [2, 11]: 0.38 ± 0.02 µM
- IC50 ([3]; Homo sapiens, HeLa): 0.32 ± 0.01 µM
- IC50 [4, 12]: 0.83 ± 0.07 µM
- IC50 [7, 13]: 2.09 ± 0.1 µM
- IC50 [8]: 0.01 ± 0.002 µM

SMILES: COc1cc([C@@H]2c3cc4c(cc3[C@@H](O[C@@H]3O[C@@H]5CO[C@@H](C)O[C@H]5[C@H](O)[C@H]3O)[C@H]3COC(=O)[C@H]23)OCO4)cc(OC)c1O [Etoposide, reference compound]
- IC50 [1, 10]: 33.5 ± 2.55 µM
- IC50 [8]: 0.022 ± 0.004 µM

SMILES: CNC(C)C1CCC(N)C(OC2C(N)CC(N)C(OC3OCC(C)(O)C(NC)C3O)C2O)O1 (stereo not drawn) [Gentamicin, reference compound]
- MBC [5]: 0.024 µg/mL (≈ 0.0503 µM)
- MIC [5]: 0.024 µg/mL (≈ 0.0503 µM)
- MBC [6]: 0.048 µg/mL (≈ 0.101 µM)
- MIC [6]: 0.048 µg/mL (≈ 0.101 µM)
- MBC [9]: 0.024 µg/mL (≈ 0.0503 µM)
- MIC [9]: 0.024 µg/mL (≈ 0.0503 µM)

SMILES: CC1(C)S[C@@H]2[C@H](NC(=O)Cc3ccccc3)C(=O)N2[C@H]1C(=O)O [Penicillin G, reference compound]
- MBC [5]: 1.56 µg/mL (≈ 4.67 µM)
- MIC [5]: 0.195 µg/mL (≈ 0.583 µM)
- MBC [6]: 3.12 µg/mL (≈ 9.35 µM)
- MIC [6]: 3.12 µg/mL (≈ 9.35 µM)
- MBC [9]: 0.003 µg/mL (≈ 0.00897 µM)
- MIC [9]: 0.00076 µg/mL (≈ 0.00227 µM)
